Laboratory results published in publication PMC6921407, “Novel coumarins active against Trypanosoma cruzi and toxicity assessment using the animal model Caenorhabditis elegans” (BMC Pharmacology & Toxicology, 2019).
Like-named read-outs stand apart in the source and are kept apart here.

Key:
[1] = tested on: Trypanosoma cruzi epimastigotes (Tulahuen 2 strain); assay: Anti-Trypanosoma cruzi activity: growth inhibition of epimastigotes (absorbance at 600 nm, day 5); assay type: cell-based; details: T. cruzi epimastigotes; for GI (%) / percentage of growth inhibition (PGI): test concentration not given
Experimental: Trypanosoma cruzi epimastigotes (Tulahuen 2 strain) were grown at 28 °C in an axenic milieu (BHI-Tryptose) supplemented with 5% fetal bovine serum (FBS), as previously described. Cells from a 10-day-old culture (stationary phase) were inoculated into 50 mL of fresh culture milieu to give an initial concentration of 1 × 10^6 cells per mL. Cell growth was followed by measuring the absorbance of the culture at 600 nm every day. Before inoculation, the milieu was supplemented with a given amount of the coumarin from a freshly prepared stock solution in DMSO (25 mM). The final concentration of DMSO in the culture medium never exceeded 0.4%, and the control was run in the presence of 0.4% DMSO and in the absence of drugs. […] Nifurtimox (Nfx) was used as the reference trypanocidal drug. The percentage of growth inhibition (PGI) was calculated as follows: PGI (%) = {1 - [(Ap - A0p) / (Ac - A0c)]} × 100, where Ap = […] of the culture containing the studied compound at day 5; […] = […] of the culture containing the studied compound just after addition of the inocula (day 0); Ac = […] of the culture in the absence of the studied compound (control) at day 5; […] = […] in the absence of the studied compound at day 0. […] At day 5, the absorbance of the culture was measured and related to the control.

[2] = Trypanosoma cruzi, TULAHUEN, 120 h, read-out: IC50

IC50 [1] | melting point | IC50 [1, 2] | SMILES | GI (%) / percentage of growth inhibition (PGI) [1]
Inactive | 99 to 100 °C |  | Cc1ccc2oc(=O)cc(CN3CCOCC3)c2c1 [10k] | Inactive
Inactive | 121 to 122 °C |  | Cc1ccc2oc(=O)cc(CN3CCSCC3)c2c1 [10l] | Inactive
Inactive | 170 to 172 °C |  | Cc1ccc2oc(=O)cc(CN3CCS(=O)(=O)CC3)c2c1 [10m] | Inactive
 | 106 to 107 °C | 13.2 ± 2.6 µM | Cc1ccc2oc(=O)cc(CN3CCC(c4ccccc4)CC3)c2c1 [10n] | < 62.7%
 | 91 to 93 °C | 27.7 ± 1.3 µM | CCc1ccc2oc(=O)cc(CNc3ccccc3)c2c1 [11a] | 35.7 ± 0.7%
 | 171 to 172 °C | > 25 µM | CCc1ccc2oc(=O)cc(CNc3ccc(C)cc3)c2c1 [11b] | < 39.5%
 | 171 to 173 °C | 11.2 ± 1.7 µM | CCc1ccc2oc(=O)cc(CNc3ccc(Cl)cc3)c2c1 [11c] | 67.6 ± 2.7%
 | 184 to 186 °C | 35.4 ± 2.1 µM | CCc1ccc2oc(=O)cc(CNc3ccc(Br)cc3)c2c1 [11d] | < 21.9%
 | 151 to 152 °C | > 25 µM | CCc1ccc2oc(=O)cc(CNc3ccc(OC)cc3)c2c1 [11e] | < 52.5%
 | 176 to 178 °C | > 25 µM | CCc1ccc2oc(=O)cc(CNc3cc(C)cc(C)c3)c2c1 [11f] | < 44.3%
 | 96 to 98 °C | 13.9 ± 2.8 µM | CCc1ccc2oc(=O)cc(CN3CCCCC3)c2c1 [11i] | < 71.4%
Inactive | > 300 °C |  | CCc1ccc2oc(=O)cc(CN3CCNCC3)c2c1 [11j] | Inactive
 | 110 to 113 °C | 22.7 ± 3.1 µM | CCc1ccc2oc(=O)cc(CN3CCOCC3)c2c1 [11k] | 57.6 ± 3.4%
 | 134 to 135 °C | > 10 µM | CCc1ccc2oc(=O)cc(CN3CCSCC3)c2c1 [11l] | 72.9 ± 0.4%
 | 175 to 177 °C | > 100 µM | CCc1ccc2oc(=O)cc(CN3CCS(=O)(=O)CC3)c2c1 [11m] | < 10.2%
 | 118 to 120 °C | 30.3 ± 0.9 µM | CCc1ccc2oc(=O)cc(CN3CCC(c4ccccc4)CC3)c2c1 [11n] | 26.7 ± 4.0%
